A short description of data set [1]: Stability of labeled peptide with reducing bioanalytes (HPLC). The data set is classed as physicochemical. The following applies: peptide 250 µM in PBS pH 7.8, 37 °C. How it is done:
5 mM gl u tath i on e >95% >95% >95%
Figure S8. Stability analysis of P1-SNBD under physiological conditions. […]

The nature of data set [2]: Chemical stability in PBS, cell culture media and reducing environments. The class given is physicochemical. How it is done:
Next, we investigated the optical properties and stability of the S-aryl linkage in the two labeled peptides P1-SNBD and cP1-SNBD. We examined their chemical stability after incubation in phosphate buffered saline (PBS, pH 7.0) at 25 °C and cell culture media at 37 °C (Figures S6 and S7) as well as different biologically relevant reducing environments (Figure S8). […] Finally, we measured the emission spectra of P1-SNBD and cP1-SNBD and confirmed that the two peptides retained the fluorogenic behavior of benzodiazoles (Figure S9).

Another data set relates to Human red blood cells. The experiment in a line: Haemolysis assay. The class given is cell-based. How it is done:
H aemolysis assays. […] H u man red bl ood cel l s w ere separated f rom seru m an d w ash ed i n ph osph ate- bu ff ered sal i n e (P B S , pH 7.4) with 4–5 ti mes cen tri f u gati on at 4000 rpm f o r 1 mi n . E ryth rocytes w ere th en resu spended in PBS as a 0.5% (v/v) sol u ti on , an d co- i n cu bated w i th seri al l y di l u ted pepti des i n a 96-w el l pl ate f o r 1 h at 37 °C . […] PBS and […]
0 .0 1 % (v /v ) Tri to n X-100 w ere u sed as con trol s to establ i sh 0% an d 100% of h aemol ysis, respecti vel y. […]

Data set [3] relates to RAW264.7 macrophages expressing the chemokine receptor CCR2. In words: Confocal imaging of receptor-mediated endocytosis of the labeled chemokine. The following applies: RAW264.7 cells, 4 μM, 1 h. The data set is classed as cell-based, mouse. The text has this:
Figure 6 Site-selective mCCL2 chemokine labeling and real-time imaging of receptor-mediated endocytosis in live macrophages. A) Schematic representation of the chemokine mCCL2 (PDB: 1DOK) depicting the incorporation of SNBD at the C-terminal end. B) Coomassie-stained and in-gel fluorescence scanning of unlabeled mCCL2, mCCL2-SNBD, and the Pd-SNBD complex. C) Mass spectrometry analysis of unlabeled mCCL2 and mCCL2-SNBD proteins. D) Representative fluorescence confocal microscopy images of RAW264.7 cells after incubation with mCCL2-SNBD for 1 h. Left panel: untreated cells; middle panel: cells treated with mCCL2-SNBD (4 μM); right panel: cells treated with mCCL2-SNBD (4 μM) and the CCR2 antagonist RS102895 (40 μM) (exc/em: 405/515 nm). Insets show the corresponding brightfield images. Scale bars: 25 μm. […]
Next, we acquired fluorescence microscopy images in live RAW264.7 macrophages as a murine macrophage cell line expressing the chemokine receptor CCR2.[64] We incubated the macrophages with mCCL2-SNBD, and fluorescence images were taken after 1 hour without any washing steps. […]
[…] Th e si gn al s w ere recorded as mi l l i degrees at 25 °C , an d th e mean resi du e el l i pti ci ty (MR E ) w as cal cu l ated accordi n g to [θ] […]

Where [4] appears, read: human red blood cells 0.5% (v/v) in PBS pH 7.4, 1 h at 37 °C, haemoglobin absorbance 405 nm, 0.01% Triton X-100 = 100%, Hill fit with maximum constrained to 100%, read-out: hemolytic activity EC50.
Setting [5] is: red cells of human, 1 h, pH 7.4.

Where two headings read alike, the source gives them in different places. Where a SMILES comes first, the peptide text is derived from it. Where no end group is shown, it is not given here. The star is where a group is joined. X1 = O=[N+]([O-])c1ccc(*)c2nsnc12 Where only a bound is given, the exact number is not on record here.

For `CC(C)C[C@H](NC(=O)[C@H](Cc1ccc(O)cc1)NC(=O)[C@H](CCCNC(=N)N)NC(=O)[C@H](CO)NC(=O)[C@H](CSc1ccc([N+](=O)[O-])c2nsnc12)NC(=O)[C@H](C)NC(=O)[C@H](Cc1ccc(O)cc1)NC(=O)[C@H](CC(C)C)NC(=O)[C@@H](N)CCCCN)C(N)=O` [P1-SNBD] (H-KLYAC(X1)SRYL-NH2), the “Peptide stability, percentage relative to peptide without bioanalyte” value in data set [1] (1 mM NADH, 3 h) is on record as greater than 95%; in data set [1] (1 mM NADH, 24 h) it was greater than 95%; in data set [1] (1 mM NADH, 48 h), greater than 95%; in data set [1] (5 mM glutathione, 3 h) it was greater than 95%; in data set [1] (5 mM glutathione, 24 h) it was greater than 95%; in data set [1] (5 mM glutathione, 48 h) it was greater than 95%. Besides, the chemical stability entry in data set [2] (cell culture media at 37 °C) is “no major degradation”; in data set [2] (different biologically relevant reducing environments), “no major degradation”; in data set [2] (phosphate buffered saline (PBS, pH 7.0) at 25 °C), “no major degradation”.

A word on the EC50: it is the concentration needed to bring the measured effect to its halfway point. Consider `N=C(N)NCCC[C@H](NC(=O)CNC(=O)[C@@H](N)Cc1ccc(O)cc1)C(=O)N[C@@H](CCCCN)C(=O)N[C@@H](CCCCN)C(=O)N[C@@H](CCCNC(=N)N)C(=O)N[C@@H](CCCNC(=N)N)C(=O)N[C@@H](CCC(N)=O)C(=O)N[C@@H](CCCNC(=N)N)C(=O)N[C@@H](CCCNC(=N)N)C(=O)N[C@@H](CCCNC(=N)N)C(=O)N1CCC[C@H]1C(=O)N[C@@H](CCC(N)=O)C(N)=O` [TAT, reference compound], for which, in the data set on Human red blood cells (setting [4]), the EC50 worked out at 79 ± 6 µM.

For the compound `N=C(N)NCCC[C@H](NC(=O)CNC(=O)[C@@H](N)Cc1ccc(O)cc1)C(=O)N[C@@H](CCCCN)C(=O)N[C@@H](CCCCN)C(=O)N[C@@H](CCCNC(=N)N)C(=O)N[C@@H](CCCNC(=N)N)C(=O)N[C@@H](CCC(N)=O)C(=O)N[C@@H](CCCNC(=N)N)C(=O)N[C@@H](CCCNC(=N)N)C(=O)N[C@@H](CCCNC(=N)N)C(=O)N1CCC[C@H]1C(=O)N[C@@H](CCC(N)=O)C(=O)N[C@@H](CSc1ccc([N+](=O)[O-])c2nsnc12)C(N)=O` [TAT-SNBD], the 50% effective concentration (EC50) in the data set on Human red blood cells (setting [4]) turned out to be 53 ± 2 µM.

Turning to `CC[C@H](C)[C@H](NC(=O)[C@H](CCCCN)NC(=O)[C@@H](NC(=O)[C@H](CCC(N)=O)NC(=O)[C@@H](N)CCCNC(=N)N)[C@@H](C)CC)C(=O)N[C@@H](Cc1c[nH]c2ccccc12)C(=O)N[C@@H](Cc1ccccc1)C(=O)N[C@@H](CCC(N)=O)C(=O)N[C@@H](CC(N)=O)C(=O)N[C@@H](CCCNC(=N)N)C(=O)N[C@@H](CCCNC(=N)N)C(=O)N[C@@H](CCSC)C(=O)N[C@@H](CCCCN)C(=O)N[C@@H](Cc1c[nH]c2ccccc12)C(=O)N[C@@H](CCCCN)C(=O)N[C@@H](CCCCN)C(N)=O` [penetratin, reference compound], in the data set on Human red blood cells (setting [4]), the EC50 turned out to be 34 ± 5 µM.

In turn, `CC[C@H](C)[C@H](NC(=O)[C@H](CCCCN)NC(=O)[C@@H](NC(=O)[C@H](CCC(N)=O)NC(=O)[C@@H](N)CCCNC(=N)N)[C@@H](C)CC)C(=O)N[C@@H](Cc1c[nH]c2ccccc12)C(=O)N[C@@H](Cc1ccccc1)C(=O)N[C@@H](CCC(N)=O)C(=O)N[C@@H](CC(N)=O)C(=O)N[C@@H](CCCNC(=N)N)C(=O)N[C@@H](CCCNC(=N)N)C(=O)N[C@@H](CCSC)C(=O)N[C@@H](CCCCN)C(=O)N[C@@H](Cc1c[nH]c2ccccc12)C(=O)N[C@@H](CCCCN)C(=O)N[C@@H](CCCCN)C(=O)N[C@@H](CSc1ccc([N+](=O)[O-])c2nsnc12)C(N)=O` [penetratin-SNBD] registered an EC50 with Human red blood cells (setting [5]) of 27 ± 3 µM.

In the data set with Human red blood cells (setting [5]), `CC[C@H](C)[C@H](NC(=O)[C@H](CCCCN)NC(=O)[C@H](CC(N)=O)NC(=O)[C@H](CCCNC(=N)N)NC(=O)[C@H](Cc1ccccc1)NC(=O)[C@H](CCCCN)NC(=O)[C@H](CCCNC(=N)N)NC(=O)[C@H](CC(C)C)NC(=O)[C@H](CCCNC(=N)N)NC(=O)[C@H](CCCCN)NC(=O)[C@H](CCCNC(=N)N)NC(=O)[C@H](CC(C)C)NC(=O)CN)C(=O)N[C@@H](CCCCN)C(=O)N[C@@H](CCC(=O)O)C(=O)N[C@@H](CCCCN)C(=O)N[C@@H](CSc1ccc([N+](=O)[O-])c2nsnc12)C(N)=O` [sC18-SNBD] (H-GLRKRLRKFRNKIKEKC(X1)-NH2) had an EC50 of 43 ± 3 µM.

With “GLRKRLRKFRNKIKEK-NH2 [sC18, reference compound]”, the EC50 in the data set on Human red blood cells (setting [4]) worked out at 70 ± 4 µM.

As for “mCCL2-SNBD: mCCL2 labeled with SNBD at the C-terminal Cys, 9063.6 Da”, the “internalization in presence of CCR2 antagonist” value in data set [3] (RS102895 40 μM pre-incubated 15 min) was “substantially reduced intracellular fluorescence emission”. Besides, in data set [3] (no washing steps), the “internalization in live macrophages” value was “bright fluorescence signals distributed across the cytosol”.

Source of the values: publication PMC11758221, “Late-Stage Minimal Labeling of Peptides and Proteins for Real-Time Imaging of Cellular Trafficking” (ACS Central Science, 2024).
